The values that follow come from patent US9056876B2, “Substituted 1H-pyrazolo[3′,4′,4,5]thieno[2,3-b]pyridin-3-amine analogs as positive allosteric modulators of the muscarinic acetylcholine receptor M4” (VANDERBILT UNIVERSITY, priority 2011, dated 2015).

The assay addresses T1, mAChR M4 (UniProt P08173).
T1 construct: hM1 and hM4 cDNAs were purchased from Missouri S&T cDNA Resource
T1 sequence (P08173 1-479): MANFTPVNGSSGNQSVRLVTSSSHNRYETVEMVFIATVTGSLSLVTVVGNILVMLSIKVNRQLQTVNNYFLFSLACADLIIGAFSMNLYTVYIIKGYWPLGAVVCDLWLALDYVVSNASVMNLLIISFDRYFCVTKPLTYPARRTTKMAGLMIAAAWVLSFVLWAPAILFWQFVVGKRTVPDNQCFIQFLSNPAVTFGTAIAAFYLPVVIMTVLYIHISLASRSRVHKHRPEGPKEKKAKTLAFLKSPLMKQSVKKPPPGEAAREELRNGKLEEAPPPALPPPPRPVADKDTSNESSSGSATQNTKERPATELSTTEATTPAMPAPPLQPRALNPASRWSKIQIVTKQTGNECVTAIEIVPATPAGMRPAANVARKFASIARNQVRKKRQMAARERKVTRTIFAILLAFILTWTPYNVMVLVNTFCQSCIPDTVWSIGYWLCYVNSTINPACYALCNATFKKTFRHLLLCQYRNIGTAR
Put plainly: mAChR M4 cell-based functional assay (calcium mobilization, Fluo-4, FDSS). The conditions noted are these: for Emax (%)*: % ACh maximum at 30 μM; for pEC50: positive allosteric modulator activity, EC20 acetylcholine response; for pEC50 / EC50: CHO-K1 cells; for EC50: positive allosteric modulator activity: concentration-dependent increase in the EC20 acetylcholine response, >10 μM estimated for low potency (no plateau). The source says:
Chinese hamster ovary (CHO-K1) cells stably expressing rat (r)M1 were purchased from the American Type Culture Collection and cultured according to their indicated protocol. CHO cells stably expressing human (h)M2, hM3, and hM5 were described previously (Levey A I, et al., (1991) J Neurosci 11:3218-3226.); hM1 and hM4 cDNAs were purchased from Missouri S&T cDNA Resource; rM4 cDNA was provided by T. I. Bonner (National Institutes of Health, Bethesda, Md.). rM2 and rM3 were cloned from a rat brain cDNA library and sequence verified. hM1, rM2, rM3, hM4, and rM4 cDNAs were used to stably transfect CHO-K1 cells purchased from the American Type Culture Collection using Lipofectamine-2000. To make stable rM2, hM2, rM3, hM4, and rM4 cell lines for use in calcium mobilization assays, these cells also were stably transfected with a chimeric G-protein (Gqi5) (provided by B. R. Conklin, University of California, San Francisco) using Lipofectamine 2000. rM1, hM1, rM3, hM3, rM5, and hM5 cells were grown in Ham's F-12 medium containing 10% heat-inactivated fetal bovine serum (FBS), 20 mM HEPES, and 50 µg/mL G418 sulfate. rM2-Gqi5, hM2-Gqi5, and hM4-Gqi5 cells were grown in the same medium also containing 500 µg/mL Hygromycin B. Stable rM4-Gqi5 cells were grown in DMEM containing 10% heat-inactivated FBS, 20 mM HEPES, 400 µg/mL G418 sulfate, and 500 µg/mL Hygromycin B.
For high throughput measurement of agonist-evoked increases in intracellular calcium, CHO-K1 cells stably expressing the target muscarinic receptor were plated in growth medium lacking G418 and hygromycin at 15,000 cells/20 μL/well in Greiner 384-well black-walled, tissue culture (TC)-treated, clear-bottom plates (VWR). Cells were incubated overnight at 37° C. and 5% CO2. The next day, cells were washed using an ELX 405 (BioTek) with four washes (80 μL) of assay buffer then aspirated to 20 μL. Next, […] of 16 μM Fluo-4/acetoxymethyl ester (Invitrogen, Carlsbad, Calif.) prepared as a 2.3 mM stock in DMSO and mixed in a 1:1 ratio with 10% (w/v) Pluronic F-127 and diluted in assay buffer was added to the wells and the cell plates were incubated for 50 min at 37° C. and 5% CO2. Dye was removed by washing with the ELX 405 (four 80 μL washes of assay buffer) then aspirated to 20 μL. Compound master plates were formatted in an 11 point CRC format (1:3 dilutions) in 100% DMSO with a starting concentration of 10 mM using the BRAVO liquid handler (Agilent). Test compound CRCs were then transferred to daughter plates (240 nL) using the Echo acoustic plate reformatter (Labcyte, Sunnyvale, Calif.) and then diluted into assay buffer (40 μL) to a 2× stock using a Thermo Fisher Combi (Thermo Fisher Scientific, Waltham, Mass.).
Calcium flux was measured using the Functional Drug Screening System (FDSS) 6000 (Hamamatsu Corporation, Tokyo, Japan) as an increase in the fluorescent static ratio. Compounds were applied to cells (20 μL, 2×) using the automated system of the FDSS 6000 at 4 s into the 300 s protocol and the data were collected at 1 Hz. At 144 s into the 300 s protocol, 10 μL of an EC20 concentration of the muscarinic receptor agonist acetylcholine was added (5×), followed by the addition of 12 μL an EC80 concentration of acetylcholine at the 230 s time point (5×). Agonist activity was analyzed as a concentration-dependent increase in calcium mobilization upon compound addition. Positive allosteric modulator activity was analyzed as a concentration-dependent increase in the EC20 acetylcholine response. Antagonist activity was analyzed as a concentration-dependent decrease in the EC80 acetylcholine response. Concentration-response curves were generated using a four-parameter logistical equation in XLfit curve fitting software (IDBS, Bridgewater, N.J.) for Excel (Microsoft, Redmond, Wash.) or Prism (GraphPad Software, Inc., San Diego, Calif.). […]

In general, pEC50 refers to the negative decadic logarithm of the EC50, by convention in mol/L. What is called EC50 is the concentration giving half of the maximal effect. Regarding `Cc1cc(C)c2c(n1)sc1c(NCc3ccncc3)nn(C)c12` [Compound 42, 1,6,8-trimethyl-N-(pyridin-4-ylmethyl)-1H-pyrazolo[3′,4′:4,5]thieno[2,3-b]pyridin-3-amine], the “Emax (%)*” value is given as 93%, the negative logarithm of the EC50 (pEC50) worked out at 6.82 and the half-maximal effective concentration (EC50) is 150 nM.

As to `Cc1cc(C)c2c(n1)sc1c(NCc3cccnc3)nn(C)c12` [Compound 76, 1,6,8-trimethyl-N-(pyridin-3-ylmethyl)-1H-pyrazolo[3′,4′:4,5]thieno[2,3-b]pyridin-3-amine], the “Emax (%)*” value is on record as 68%, the pEC50 is 6.66 and the EC50 is 220 nM.

In the case of `Cc1ccc2c(n1)sc1c(NCc3ccccc3)n[nH]c12` [Compound 50, N-benzyl-6-methyl-1H-pyrazolo[3′,4′:4,5]thieno[2,3-b]pyridin-3-amine], the “Emax (%)*” value is listed as 57%, the pEC50 is reported as 5.60 and the EC50 is 2500 nM.

Take `Cc1cc(C)c2c(n1)sc1c(NC3CCN(C(C)C)CC3)n[nH]c12` [Compound 131, N-(1-isopropylpiperidin-4-yl)-6,8-dimethyl-1H-pyrazolo[3′,4′:4,5]thieno[2,3-b]pyridin-3-amine]: the negative logarithm of the EC50 (pEC50) is less than 5.00 and the EC50 was greater than 10000 nM.

As to `CC(=O)Nc1n[nH]c2c1sc1nc(C)cc(C)c12` [Compound 126, N-(6,8-dimethyl-1H-pyrazolo[3′,4′:4,5]thieno[2,3-b]pyridin-3-yl)acetamide], the pEC50 is reported as less than 5.00 and the EC50 was greater than 10000 nM.

For the compound `Cc1cc(C)c2c(n1)sc1c(NC3CCOCC3)nn(CCO)c12` [Compound 115, 2-(6,8-dimethyl-3-((tetrahydro-2H-pyran-4-yl)amino)-1H-pyrazolo[3′,4′:4,5]thieno[2,3-b]pyridin-1-yl)ethanol], the “Emax (%)*” value is 69%, the pEC50 came out at 5.72 and the EC50 was 1900 nM.

In the case of `CCCn1nc(NCc2ccc(S(C)(=O)=O)cc2)c2sc3nc(C)cc(C)c3c21` [Compound 120, 6,8-dimethyl-N-(4-(methylsulfonyl)benzyl)-1-propyl-1H-pyrazolo[3′,4′:4,5]thieno[2,3-b]pyridin-3-amine], the “Emax (%)*” value came out at 59%, the pEC50 is less than 5.00 and the EC50 was greater than 10000 nM.

As for `Cc1ccc2c(n1)sc1c(NCCC(C)C)nn(C)c12` [Compound 54, N-isopentyl-1,6-dimethyl-1H-pyrazolo[3′,4′:4,5]thieno[2,3-b]pyridin-3-amine], the “Emax (%)*” value is on record as 71%, the negative logarithm of the EC50 (pEC50) is 6.06 and the EC50 was 880 nM.

As for `Cc1cc(C)c2c(n1)sc1c(NCC3CCCN3C(=O)OC(C)(C)C)nn(C)c12` (centres unmarked) [Compound 85, tert-butyl 2-(((1,6,8-trimethyl-1H-pyrazolo[3′,4′:4,5]thieno[2,3-b]pyridin-3-yl)amino)methyl)pyrrolidine-1-carboxylate], the “Emax (%)*” value was found to be 37%, the pEC50 is 5.48 and the concentration giving a half-maximal response (EC50) was 3300 nM.

Regarding `Cc1cc(C)c2c(n1)sc1c(NCc3ccccc3F)nn(C)c12` [Compound 57, N-(2-fluorobenzyl)-1,6,8-trimethyl-1H-pyrazolo[3′,4′:4,5]thieno[2,3-b]pyridin-3-amine], the “Emax (%)*” value is on record as 70%, the pEC50 was determined as 6.72 and the 50% effective concentration (EC50) was 190 nM.

Take `COCCn1nc(NCc2ccco2)c2sc3nc(C)cc(C)c3c21` [Compound 167, N-(furan-2-ylmethyl)-1-(2-methoxyethyl)-6,8-dimethyl-1H-pyrazolo[3′,4′:4,5]thieno[2,3-b]pyridin-3-amine]: the pEC50 was less than 5.00 and the 50% effective concentration (EC50) was greater than 10000 nM.

With `Cc1ccc2c(n1)sc1c(NCc3ccco3)n[nH]c12` [Compound 44, N-(furan-2-ylmethyl)-6-methyl-1H-pyrazolo[3′,4′:4,5]thieno[2,3-b]pyridin-3-amine], the “Emax (%)*” value amounted to 62%, the pEC50 is recorded as 5.30 and the 50% effective concentration (EC50) is 5000 nM.

On to `Cc1ccnc2sc3c(NCc4ccccc4)nn(C)c3c12` [Compound 68, N-benzyl-1,8-dimethyl-1H-pyrazolo[3′,4′:4,5]thieno[2,3-b]pyridin-3-amine], for which the “Emax (%)*” value is given as 75%, the negative logarithm of the EC50 (pEC50) worked out at 6.24 and the concentration for a half-maximal effect (EC50) is 580 nM.

Regarding `Cc1cc(C)c2c(n1)sc1c(NCC3CCN(C(=O)OC(C)(C)C)CC3)nn(C)c12` [Compound 122, tert-butyl 4-(((1,6,8-trimethyl-1H-pyrazolo[3′,4′:4,5]thieno[2,3-b]pyridin-3-yl)amino)methyl)piperidine-1-carboxylate], the “Emax (%)*” value is 27%, the negative-log EC50 (pEC50) was less than 5.00 and the EC50 is greater than 10000 nM.

As for `Cc1cc(C)c2c(n1)sc1c(NCc3ccc(F)cc3)nn(C)c12` [Compound 39, N-(4-fluorobenzyl)-1,6,8-trimethyl-1H-pyrazolo[3′,4′:4,5]thieno[2,3-b]pyridin-3-amine], the “Emax (%)*” value was 68%, the pEC50 was found to be 6.30 and the EC50 is 500 nM.

`Cc1cc(C)c2c(n1)sc1c(NCc3ccccc3F)n[nH]c12` [Compound 9, N-(2-fluorobenzyl)-6,8-dimethyl-1H-pyrazolo[3′,4′:4,5]thieno[2,3-b]pyridin-3-amine]: the “Emax (%)*” value was 43%, the pEC50 is reported as 5.98 and the concentration giving a half-maximal response (EC50) is 1050 nM.

For the compound `Cc1cc(C)c2c(n1)sc1c(NC3CCCC3)nn(C)c12` [Compound 64, N-cyclopentyl-1,6,8-trimethyl-1H-pyrazolo[3′,4′:4,5]thieno[2,3-b]pyridin-3-amine], the “Emax (%)*” value is on record as 83%, the negative-log EC50 (pEC50) turned out to be 6.85 and the half-maximal effective concentration (EC50) was 140 nM.

With `Cc1cc(C)c2c(n1)sc1c(NC(=O)c3ccccc3)nn(C)c12` [Compound 152, N-(1,6,8-trimethyl-1H-pyrazolo[3′,4′:4,5]thieno[2,3-b]pyridin-3-yl)benzamide], the pEC50 is recorded as less than 5.00 and the EC50 was greater than 10000 nM.

On to `Cc1cc(C)c2c(n1)sc1c(NC3CCSC3)nn(CCO)c12` (centres unmarked) [Compound 109, 2-(6,8-dimethyl-3-((tetrahydrothiophen-3-yl)amino)-1H-pyrazolo[3′,4′:4,5]thieno[2,3-b]pyridin-1-yl)ethanol], for which the “Emax (%)*” value was determined as 68%, the pEC50 is on record as 6.70 and the half-maximal effective concentration (EC50) is 200 nM.
